The numbers were not newly measured in US20260130964A1, “PHARMACEUTICAL COMPOSITION COMPRISING HIGH PAY LOAD GINGER EXTRACT GRANULES AND PROCESS FOR PREPARATION THEREOF” (INDIA GLYCOLS LIMITED, priority 2022, published 2026), which cites them from elsewhere.

The conditions of this data set: in vivo, po.

As for `CCCCC[C@H](O)CC(=O)CCc1ccc(O)c(OC)c1` [Example 6-gingerol, 6-gingerol], the biological half-life is less than 2 hrs.
